Drawing on PubChem BioAssay (NCI), this text covers GI50 and TGI for 9 compounds.

Molecules are shown by their SMILES. “And” between values parts separate entries of the source, which are not always exact repeats. Equal values may be shown once.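 Results reflect a 48-hour exposure of cells in 96-well plates to compound at five concentrations. Abbreviation: GI50, concentration required for 50% inhibition of growth. TGI: concentration producing complete growth inhibition.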

Some test systems named below: DU-145 prostate; OVCAR-5 ovarian; HOP-92 NSCLC; HT29 colon; SK-MEL-28 melanoma; A549 NSCLC; MCF7 breast; CCRF-CEM leukemia; IGROV1 ovarian; TK-10 renal.
Common to all, as to experiment: NCI tumour cell line growth inhibition, 48 h

`CC1=C/C(O)CC(=O)Cc2nc(co2)C(=O)N2CCC=C2C(=O)OC(C(C)C)C(C)/C=C\C(=O)NC/C=C\1` (stereo not drawn): the GI50 in the assay with DU-145 prostate is 18500 nM; in the assay on OVCAR-5 ovarian it was 31.6 µM; in the assay with HOP-92 NSCLC, 18 µM; with HT29 colon, 13.2 µM; in the assay on A549 NSCLC it was 25.1 µM; in the assay on MCF7 breast, 5.89 µM. Moreover, the GI50 in the assay with CCRF-CEM leukemia was 7.35 µM; in the assay on IGROV1 ovarian, 18.6 µM; in the assay on TK-10 renal it was above 100 µM. For the same compound, the TGI in the assay with DU-145 prostate is 45.2 µM and > 100 µM; in the assay with OVCAR-5 ovarian it was 71.8 µM and 75.6 µM; in the assay with HOP-92 NSCLC, above 86.2 µM; in the assay with HT29 colon it was 30.7 µM and 31.8 µM; in the assay with SK-MEL-28 melanoma, 44.6 µM and 46.3 µM; with A549 NSCLC, above 100 µM. The TGI in the assay on MCF7 breast was 25.1 µM and 41.2 µM; in the assay with CCRF-CEM leukemia, > 100 µM and 81.9 µM; with IGROV1 ovarian, 48.2 µM and 36.6 µM; in the assay with TK-10 renal, > 100 µM and 96.1 µM.

In the case of `O=C1C(CO)=C[C@@H](O)[C@H]2O[C@@H]12`, the TGI in the assay with DU-145 prostate, in the assay with OVCAR-5 ovarian, with HOP-92 NSCLC, in the assay on HT29 colon, with SK-MEL-28 melanoma and in the assay with A549 NSCLC was above 100 µM each time. Besides, the TGI in the assay with MCF7 breast is 44.9 µM; with CCRF-CEM leukemia, above 100 µM; in the assay with IGROV1 ovarian, above 100 µM.

For `CCCC(CCC)Oc1ccc(CCCC2=C(O)c3ccccc3C(=O)C2=O)cc1`, the GI50 is 6710 nM with DU-145 prostate; 11.8 µM in the assay with OVCAR-5 ovarian; 6.2 µM in the assay with HT29 colon; 10.1 µM with SK-MEL-28 melanoma; 4.11 µM with A549 NSCLC; 4.32 µM in the assay on MCF7 breast. In addition, the GI50 is 2.9 µM in the assay on CCRF-CEM leukemia, 4.93 µM in the assay on IGROV1 ovarian and 8.03 µM with TK-10 renal. Also, the TGI in the assay with DU-145 prostate worked out at 19 µM; with OVCAR-5 ovarian, 25.8 µM; in the assay with HT29 colon it was 17.9 µM; with SK-MEL-28 melanoma, 21.7 µM; in the assay on A549 NSCLC, 22.4 µM; in the assay with MCF7 breast it was 15.2 µM. Also, the results for the TGI with CCRF-CEM leukemia, with IGROV1 ovarian and with TK-10 renal were 17.1 µM, 18.5 µM and 21.3 µM, respectively.

In the case of `CN(N=O)C(=O)Nc1ccc(C(=O)O)cc1`, the TGI with DU-145 prostate, in the assay with OVCAR-5 ovarian, in the assay on HOP-92 NSCLC, in the assay with HT29 colon, with SK-MEL-28 melanoma and in the assay with A549 NSCLC was above 100 µM in each case. For the same compound, the TGI in the assay with MCF7 breast, in the assay on CCRF-CEM leukemia, in the assay with IGROV1 ovarian and in the assay with TK-10 renal was above 100 µM in each case.

`C=C1[C@@H](O)C[C@H]2C(C)(C)C[C@H](Cl)C[C@]2(C)[C@H]1C[C@H](O)[C@H]1CC(=O)NC1=O`: the GI50 in the assay with DU-145 prostate is 16.6 nM; in the assay with OVCAR-5 ovarian it was 0.0269 µM; in the assay on HOP-92 NSCLC, below 0.0115 µM; in the assay with HT29 colon, below 0.0105 µM; with SK-MEL-28 melanoma, 0.0161 µM; with A549 NSCLC, 0.0117 µM. Further, the GI50 in the assay on MCF7 breast was below 0.01 µM; in the assay with CCRF-CEM leukemia, below 0.01 µM; in the assay on IGROV1 ovarian, 0.0114 µM; with TK-10 renal, 0.0253 µM. Also, the TGI with DU-145 prostate was 0.165 µM; in the assay on OVCAR-5 ovarian, 0.395 µM; with HOP-92 NSCLC it was 0.179 µM; in the assay on HT29 colon, 0.119 µM; in the assay on SK-MEL-28 melanoma, 0.127 µM; in the assay with A549 NSCLC, 0.145 µM. The figures for the TGI in the assay with MCF7 breast, with IGROV1 ovarian and in the assay with TK-10 renal were 0.106 µM, 0.0853 µM and 0.151 µM, respectively.

With `COC(=O)c1ccc(NC(N)=NCC(C)(C)COc2ccc(C(F)(F)F)cc2)nc1`, the GI50 in the assay with DU-145 prostate was 1700 nM; in the assay with OVCAR-5 ovarian it was 1.6 µM; in the assay on HOP-92 NSCLC, 1.23 µM; in the assay on HT29 colon, 1.66 µM; with SK-MEL-28 melanoma it was 1.64 µM; in the assay on A549 NSCLC it was 1.63 µM. For the same compound, the results for the GI50 in the assay with MCF7 breast and in the assay on TK-10 renal were 1.52 µM and 1.57 µM, respectively. Moreover, the TGI with DU-145 prostate came out at 3.2 µM; with OVCAR-5 ovarian it was 3.08 µM; in the assay on HOP-92 NSCLC, 2.57 µM; with HT29 colon, 3.21 µM; in the assay with SK-MEL-28 melanoma, 3.08 µM; in the assay with A549 NSCLC it was 3.17 µM. The TGI with MCF7 breast was determined as 3.28 µM; with TK-10 renal it was 3 µM.

As for `C=C(CN(C)Cc1ccccc1)c1ccc(C(=O)Nc2ccccc2N)cc1`, the GI50 was 1640 nM in the assay with DU-145 prostate; 5.46 µM in the assay on OVCAR-5 ovarian; 3.36 µM with HOP-92 NSCLC; 7.79 µM in the assay with SK-MEL-28 melanoma; 5.19 µM in the assay with A549 NSCLC; 16.8 µM in the assay with MCF7 breast. Besides, the GI50 with IGROV1 ovarian is 0.606 µM; in the assay with TK-10 renal, 7.12 µM. Further, the TGI in the assay with DU-145 prostate is 11.9 µM; in the assay with OVCAR-5 ovarian, 21.4 µM; in the assay with HOP-92 NSCLC, 24.5 µM; with SK-MEL-28 melanoma it was above 50 µM; in the assay with A549 NSCLC it was 19.1 µM; with MCF7 breast, above 50 µM. Besides, the figures for the TGI in the assay with IGROV1 ovarian and in the assay with TK-10 renal were 9.35 µM and 17.8 µM, respectively.

On to `COc1cccc2c1C(=O)c1c(O)c3c(c(O)c1C2=O)C[C@@](O)(C(C)=O)C[C@@H]3OC1CC(O)C(O)C(C)O1` (stereo partly drawn), for which the TGI with DU-145 prostate is 8.55 µM; in the assay with HOP-92 NSCLC, 9.67 µM and 18.8 µM; in the assay with SK-MEL-28 melanoma, 25 µM; in the assay on A549 NSCLC it was 6.31 µM and 10.4 µM; with MCF7 breast it was above 94.4 µM; with CCRF-CEM leukemia it was 1.98 µM and 2.06 µM. The TGI with TK-10 renal is 81.3 µM. Also, the GI50 with MCF7 breast is 0.153 µM.

`Cc1cc(S(=O)(=O)Nc2nc3ccccc3[nH]2)c(SCc2ccccc2)cc1Cl`: the GI50 with DU-145 prostate is above 100000 nM; in the assay on OVCAR-5 ovarian, above 100 µM; in the assay with HOP-92 NSCLC, 62.2 µM; with SK-MEL-28 melanoma, above 100 µM; in the assay with A549 NSCLC, above 100 µM; with MCF7 breast it was above 100 µM. In addition, the results for the GI50 with CCRF-CEM leukemia, in the assay with IGROV1 ovarian and with TK-10 renal were 12.3 µM, 82 µM and 38 µM, respectively. The TGI in the assay on DU-145 prostate, in the assay with OVCAR-5 ovarian, in the assay on HOP-92 NSCLC, with SK-MEL-28 melanoma, with A549 NSCLC and with MCF7 breast was above 100 µM in each case. Further, the TGI was 24.8 µM in the assay on CCRF-CEM leukemia, above 100 µM with IGROV1 ovarian and above 100 µM in the assay on TK-10 renal.
